In this assay the target is USP14 (Homo sapiens (Human), UniProt P54578). Put plainly: Usp14 inhibition assay (Example 5A, A-series compounds). Type of assay: biochemical. To be noted: average value from a minimum of two experimental determinations; read-out: Usp14 IC50 Category. An excerpt:
Example 5A: Usp14 Inhibition Assay
The IC50 values in the Table below represent the average value from a minimum of two experimental determinations.
Chain of USP14 (P54578 whole entry, looked up): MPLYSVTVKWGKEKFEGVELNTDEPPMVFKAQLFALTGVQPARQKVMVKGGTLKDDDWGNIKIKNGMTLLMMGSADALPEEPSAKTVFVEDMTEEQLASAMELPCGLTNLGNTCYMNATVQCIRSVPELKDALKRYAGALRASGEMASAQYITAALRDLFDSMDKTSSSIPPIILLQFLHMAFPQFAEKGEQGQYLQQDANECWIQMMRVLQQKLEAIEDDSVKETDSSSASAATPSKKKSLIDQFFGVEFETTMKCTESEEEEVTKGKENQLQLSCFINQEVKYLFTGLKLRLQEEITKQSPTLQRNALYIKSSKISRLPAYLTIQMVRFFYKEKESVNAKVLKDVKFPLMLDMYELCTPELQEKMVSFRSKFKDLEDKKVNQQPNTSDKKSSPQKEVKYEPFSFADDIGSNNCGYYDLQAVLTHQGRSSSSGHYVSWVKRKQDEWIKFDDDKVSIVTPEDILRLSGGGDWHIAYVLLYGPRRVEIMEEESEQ
With `Cc1c(C(=O)CN2[C@@H]3CC[C@H]2C[C@@H](O)C3)c2ccc(CC3COC3)cc2n1-c1ccc(Cl)cc1` [Example 22A, 1-(1-(4-Chlorophenyl)-2-methyl-6-(oxetan-3-ylmethyl)-1H-indol-3-yl)-2-((1R,3r,5S)-3-hydroxy-8-azabicyclo[3.2.1]octan-8-yl)ethan-1-one], the IC50 was 50 to 100 nM.
Then `Cc1c(C(=O)CN2C3CCC2CC(O)C3)c2ccc(CCS(=O)(=O)C3CC3)cc2n1-c1ccc(Cl)cc1` [Example 23A, 1-(1-(4-Chlorophenyl)-6-(2-(cyclopropylsulfonyl)ethyl)-2-methyl-1H-indol-3-yl)-2-((1R,3R,5S)-3-hydroxy-8-azabicyclo[3.2.1]octan-8-yl)ethan-1-one], with < 50 nM; and `Cc1c(C(=O)CN2[C@@H]3CC[C@H]2C[C@H](O)C3)c2ccc(CCS(=O)(=O)C3CC3)cc2n1-c1ccc(Cl)cc1` [Example 24A, 1-(1-(4-Chlorophenyl)-6-(2-(cyclopropylsulfonyl)ethyl)-2-methyl-1H-indol-3-yl)-2-((1R,3s,5S)-3-hydroxy-8-azabicyclo[3.2.1]octan-8-yl)ethan-1-one], with 50 to 100 nM; and `Cc1c(C(=O)CN2C3CCC2CC(O)C3)c2ccc(CCCC#N)cc2n1-c1ccc(Cl)cc1` (stereo not shown) [Example 25A, 4-(1-(4-Chlorophenyl)-3-(2-(3-hydroxy-8-azabicyclo[3.2.1]octan-8-yl)acetyl)-2-methyl-1H-indol-6-yl)butanenitrile], with > 100 nM.
To `Cc1c(C(=O)CN2C3CCC2CC(O)C3)c2ccc(CC3COC3)cc2n1-c1ccc(Cl)cc1` [Example 27A, 1-(1-(4-Chlorophenyl)-2-methyl-6-(oxetan-3-ylmethyl)-1H-indol-3-yl)-2-((1R,3S,5S)-3-hydroxy-8-azabicyclo[3.2.1]octan-8-yl)ethan-1-one] belongs > 100 nM; to `Cc1c(C(=O)CN2[C@@H]3CC[C@H]2C[C@H](O)C3)c2ccc(CCC3=NCCN3C)cc2n1-c1ccc(Cl)cc1` [Example 28A, 1-(1-(4-Chlorophenyl)-2-methyl-6-(2-(1-methyl-4,5-dihydro-1H-imidazol-2-yl)ethyl)-1H-indol-3-yl)-2-((1R,3S,5S)-3-hydroxy-8-azabicyclo[3.2.1]octan-8-yl)ethan-1-one], < 50 nM; to `Cc1c(C(=O)CN2C3CCC2CC(O)C3)c2ccc(CCC3=NCCN3C)cc2n1-c1ccc(Cl)cc1` [Example 29A, 1-(1-(4-Chlorophenyl)-2-methyl-6-(2-(1-methyl-4,5-dihydro-1H-bimidazol-2-yl)ethyl)-1H-indol-3-yl)-2-((1R,3R,5S)-3-hydroxy-8-azabicyclo[3.2.1]octan-8-yl)ethan-1-one], < 50 nM.
On to `Cc1c(C(=O)CN2C3CCC2CC3)c2ccc(CC#N)cc2n1-c1ccc(Cl)cc1` [Example 30A], for which the IC50 lay within 50 to 100 nM.
Consider `Cc1c(C(=O)CN2[C@@H]3CC[C@H]2C[C@](O)(C(C)C)C3)c2ccc(CCC#N)cc2n1-c1ccc(Cl)cc1` [Example 32A, 3-(1-(4-Chlorophenyl)-3-(2-(3-hydroxy-3-isopropyl-8-azabicyclo[3.2.1]octan-8-yl)acetyl)-2-methyl-1H-indol-6-yl)propanenitrile], for which the IC50 was in the range of 50 to 100 nM.
For the molecule `Cc1c(C(=O)CN2C3CCCC2CC3)c2ccc(CCC#N)cc2n1-c1ccc(Cl)cc1` [Example 33A, 3-(3-(2-(8-Azabicyclo[3.2.1]octan-8-yl)acetyl)-1-(4-chlorophenyl)-2-methyl-1H-indol-6-yl)propanenitrile], the IC50 is < 50 nM.

(Values after patent US11560385B2, “Proteasome activity enhancing compounds” (Proteostasis Therapeutics, Inc., priority 2018, dated 2023).)
